The values below come from ChEMBL document CHEMBL1201862, “PubChem BioAssay data set” (2004).

Test systems include A498; ACHN; BT-549; HCC 2998; HCT-116; Hs-578T; K562; MDA-MB-231; MDA-MB-435; NCI-H23; OVCAR-4; PC-3; SK-MEL-28; SK-MEL-2; SK-OV-3; T47D; UACC-257; HL-60; IGROV-1.
Assay in all cases: NCI anticancer screen, dose series, 48 h

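48-hour exposure; five concentrations; linearly interpolated endpoints. At the GI50, growth is halved.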 Calls of active or inactive are those of the source. Cut-off read from the data, not from the text of the source: active = GI50 up to about 1.1 µM and inactive = higher. Some results are limits rather than exact numbers.

For the molecule `CSc1scc2c1/C(=N/NC(N)=O)CCC2`, the GI50 with A498 was 39.7 µM (inactive); in the experiment on ACHN it was > 100 µM (inactive); with BT-549, 80 µM (inactive); in the experiment on HCC 2998 it was > 100 µM (inactive); with HCT-116 it was 70 µM (inactive); with Hs-578T, 82.6 µM (inactive). Besides, the GI50 is > 100 µM (inactive) with K562; > 100 µM (inactive) with MDA-MB-231; 52.8 µM (inactive) with MDA-MB-435; > 100 µM (inactive) in the experiment with NCI-H23; > 100 µM (inactive) in the experiment on OVCAR-4; 93.5 µM (inactive) in the experiment on PC-3. The GI50 in the experiment on SK-MEL-28, in the experiment with SK-MEL-2, in the experiment with SK-OV-3, in the experiment with T47D and with UACC-257 was > 100 µM (inactive) each time.

In the case of `CC(=O)c1c(O)cc(O)c(-c2c(C)cc(O)c3c2C(=O)c2cccc(O)c2C3=O)c1O`, the GI50 in the experiment on A498 is 15.6 µM (inactive); in the experiment on ACHN, 12.9 µM (inactive); in the experiment with BT-549 it was 17.5 µM (inactive); in the experiment on HCT-116, 15.4 µM (inactive); in the experiment on HL-60, 23.2 µM (inactive); with Hs-578T it was 7.48 µM (inactive). For the same molecule, the GI50 in the experiment on IGROV-1 was 11.6 µM (inactive); in the experiment on K562 it was 19.4 µM (inactive); in the experiment on MDA-MB-231, 25.1 µM (inactive); in the experiment with MDA-MB-435, 16.7 µM (inactive); in the experiment with OVCAR-4, 10.8 µM (inactive); with PC-3, 11 µM (inactive). For the same molecule, the GI50 was 20.7 µM (inactive) in the experiment with SK-MEL-28; 15.9 µM (inactive) in the experiment on SK-MEL-2; 13.1 µM (inactive) in the experiment with SK-OV-3; 4.95 µM (inactive) in the experiment on T47D; 19.9 µM (inactive) in the experiment on UACC-257.

For `Cc1n[nH]c(=O)n1C1CC1`, the GI50 with ACHN is > 100 µM (inactive); in the experiment with BT-549 it was 0.0111 µM (active); in the experiment with HCC 2998, > 100 µM (inactive); in the experiment with HCT-116, > 100 µM (inactive); in the experiment on HL-60, > 100 µM (inactive); with Hs-578T it was > 100 µM (inactive). Moreover, the GI50 with IGROV-1, in the experiment with K562, with MDA-MB-231, in the experiment with MDA-MB-435, with NCI-H23 and in the experiment with OVCAR-4 was > 100 µM (inactive) each time. For the same molecule, the GI50 in the experiment with PC-3, with SK-MEL-28, in the experiment with SK-OV-3, in the experiment with T47D and with UACC-257 was > 100 µM (inactive) throughout.

`COc1cc([C@@H]2c3cc4c(cc3[C@@H](OC3OC5COC(C)OC5C(OC(=O)CN5CCN(C)CC5)C3OC(=O)CN3CCN(C)CC3)C3COC(=O)[C@@H]32)OCO4)cc(OC)c1OC(=O)CN1CCN(C)CC1` (stereo partly specified): the GI50 was 54.5 µM (inactive) in the experiment with ACHN; 34.4 µM (inactive) with BT-549; 32.1 µM (inactive) in the experiment with HCC 2998; 25.5 µM (inactive) with HCT-116; 11.5 µM (inactive) in the experiment with HL-60; 56 µM (inactive) in the experiment on Hs-578T. Also, the GI50 with IGROV-1 was 72.3 µM (inactive); with K562, 67.5 µM (inactive); with MDA-MB-231 it was 54.3 µM (inactive); in the experiment on MDA-MB-435 it was > 100 µM (inactive); with NCI-H23 it was 22.3 µM (inactive); in the experiment on OVCAR-4, > 100 µM (inactive). Besides, the GI50 was > 100 µM (inactive) in the experiment with PC-3; > 100 µM (inactive) in the experiment on SK-MEL-2; > 100 µM (inactive) in the experiment on SK-OV-3; 71.1 µM (inactive) in the experiment with T47D; > 100 µM (inactive) in the experiment with UACC-257.

For the molecule `CN(/N=C/c1ccccc1O)c1ccc2ccccc2n1`, the GI50 in the experiment on A498 was 20 µM (inactive); in the experiment with ACHN, 25.4 µM (inactive); with BT-549 it was 23.6 µM (inactive); in the experiment on HCT-116, 48.3 µM (inactive); with HL-60, 81.7 µM (inactive); in the experiment on Hs-578T it was 26.7 µM (inactive). The GI50 is 11.3 µM (inactive) with IGROV-1; 60.3 µM (inactive) with K562; 29.8 µM (inactive) in the experiment on MDA-MB-231; 44.4 µM (inactive) in the experiment on MDA-MB-435; 17.1 µM (inactive) with NCI-H23; 20.3 µM (inactive) in the experiment on OVCAR-4. Besides, the GI50 in the experiment with PC-3 was 17.5 µM (inactive); in the experiment on SK-MEL-28, 65.9 µM (inactive); in the experiment on SK-MEL-2, 35.6 µM (inactive); in the experiment on SK-OV-3, 16.3 µM (inactive); in the experiment with T47D it was 13.5 µM (inactive); in the experiment with UACC-257, 52.8 µM (inactive).

Regarding `O=C(O)C1C2CCC(O2)C1C(=O)NCc1cccnc1` (stereo unspecified), the GI50 in the experiment with A498, in the experiment with ACHN, in the experiment on BT-549, in the experiment on HCT-116, with Hs-578T and with MDA-MB-231 was > 100 µM (inactive) each time. The GI50 in the experiment on MDA-MB-435, in the experiment on NCI-H23, in the experiment with OVCAR-4, in the experiment on PC-3, with SK-MEL-28 and with SK-MEL-2 was > 100 µM (inactive) throughout. For the same molecule, the GI50 with SK-OV-3, with T47D and in the experiment with UACC-257 was > 100 µM (inactive) each time.

Turning to `CCN(CC)CCC(=O)c1ccc(Oc2ccc(C)cc2)cc1`, the GI50 in the experiment on ACHN was 21.1 µM (inactive); in the experiment with BT-549, 18 µM (inactive); with HCC 2998, 19.2 µM (inactive); with HCT-116, 17.3 µM (inactive); in the experiment with Hs-578T, 23.4 µM (inactive); in the experiment on IGROV-1, 20.1 µM (inactive). Besides, the GI50 is 30.5 µM (inactive) with K562; 16.9 µM (inactive) with MDA-MB-231; 18 µM (inactive) with MDA-MB-435; 17.7 µM (inactive) in the experiment on NCI-H23; 24.4 µM (inactive) in the experiment with OVCAR-4; 17.9 µM (inactive) with PC-3. Moreover, the GI50 was 16.9 µM (inactive) in the experiment with SK-MEL-28; 33.2 µM (inactive) in the experiment with SK-MEL-2; 28.4 µM (inactive) with SK-OV-3; 18.2 µM (inactive) with T47D; 19.2 µM (inactive) with UACC-257.

On to `CC1=NN(C(=O)CC(=O)Nc2cccc(Cl)c2)C(=O)C1/N=N\c1ccc(S(=O)(=O)c2ccc(/N=N/C3C(=O)N(C(=O)CC(=O)Nc4cccc(Cl)c4)N=C3C)cc2)cc1` (stereo unspecified), for which the GI50 in the experiment on ACHN, with BT-549, in the experiment on HCC 2998, in the experiment on HCT-116, with HL-60 and with Hs-578T was > 100 µM (inactive) in each case. In addition, the GI50 in the experiment with IGROV-1 is > 100 µM (inactive); with K562 it was > 100 µM (inactive); in the experiment on MDA-MB-231, 16.1 µM (inactive); in the experiment with MDA-MB-435 it was > 100 µM (inactive); in the experiment on NCI-H23 it was > 100 µM (inactive); with OVCAR-4, > 100 µM (inactive). The GI50 in the experiment with PC-3, in the experiment with SK-MEL-28, with SK-MEL-2, in the experiment with SK-OV-3, in the experiment with T47D and in the experiment on UACC-257 was > 100 µM (inactive) each time.

As for `c1cncc(C2(c3cc4ccccc4[nH]3)COCO2)c1` (stereo unspecified), the GI50 with ACHN is 77.3 µM (inactive); in the experiment with BT-549, > 100 µM (inactive); with HCC 2998, > 100 µM (inactive); in the experiment on HCT-116 it was 71 µM (inactive); with HL-60, 32.7 µM (inactive); in the experiment on Hs-578T it was > 100 µM (inactive). Besides, the GI50 is > 100 µM (inactive) in the experiment with IGROV-1; > 100 µM (inactive) in the experiment with K562; > 100 µM (inactive) with MDA-MB-231; > 100 µM (inactive) in the experiment on MDA-MB-435; > 100 µM (inactive) in the experiment on NCI-H23; 65 µM (inactive) in the experiment with OVCAR-4. Moreover, the GI50 was 94.2 µM (inactive) in the experiment with PC-3; > 100 µM (inactive) in the experiment with SK-MEL-28; > 100 µM (inactive) with SK-MEL-2; > 100 µM (inactive) in the experiment on SK-OV-3; > 100 µM (inactive) in the experiment on T47D; > 100 µM (inactive) in the experiment on UACC-257.

On to `CCOC(=O)c1c(NS(=O)(=O)c2ccccc2)sc2c1CCCC2`, for which the GI50 is 98.2 µM (inactive) in the experiment on A498; 64.6 µM (inactive) with ACHN; > 100 µM (inactive) with BT-549; 37.7 µM (inactive) in the experiment on HCT-116; 57.5 µM (inactive) in the experiment on HL-60; 82.8 µM (inactive) with Hs-578T. In addition, the GI50 in the experiment on IGROV-1 is 54.8 µM (inactive); in the experiment with K562, 30.8 µM (inactive); in the experiment on MDA-MB-231, > 100 µM (inactive); in the experiment with NCI-H23, > 100 µM (inactive); in the experiment on PC-3, 39.5 µM (inactive); with SK-MEL-2 it was 68.1 µM (inactive). The GI50 in the experiment on T47D is 47.8 µM (inactive); in the experiment on UACC-257, 81.7 µM (inactive).

In the case of `CCOC(=O)/C(=C\c1ccc(CO)o1)P(=O)(OCC)OCC`, the GI50 with A498 was 55.3 µM (inactive); in the experiment on ACHN it was 61.1 µM (inactive); with BT-549 it was 20.1 µM (inactive); with HCC 2998 it was > 100 µM (inactive); with HCT-116 it was 24.4 µM (inactive); in the experiment on Hs-578T, 36.1 µM (inactive). The GI50 is 37.2 µM (inactive) in the experiment on IGROV-1; 31.7 µM (inactive) with MDA-MB-231; 29 µM (inactive) in the experiment on MDA-MB-435; 22.3 µM (inactive) in the experiment on NCI-H23; 19.9 µM (inactive) in the experiment on OVCAR-4; 5.43 µM (inactive) with PC-3. Also, the GI50 in the experiment with SK-MEL-28 was 30.7 µM (inactive); in the experiment with SK-MEL-2, 25.2 µM (inactive); in the experiment with SK-OV-3, 68.5 µM (inactive); in the experiment on T47D, 91.2 µM (inactive); in the experiment with UACC-257, 44.6 µM (inactive).

Regarding `CCOC(=O)C1(C)CCc2sc(N)c(C#N)c21` (stereo unspecified), the GI50 with A498, in the experiment on ACHN, in the experiment on BT-549, in the experiment on HCC 2998, in the experiment with HCT-116 and in the experiment with HL-60 was > 100 µM (inactive) each time. For the same molecule, the GI50 in the experiment on Hs-578T, in the experiment with IGROV-1, with K562, in the experiment with MDA-MB-231, with NCI-H23 and in the experiment on PC-3 was > 100 µM (inactive) in each case. The GI50 in the experiment with SK-MEL-28, in the experiment on SK-MEL-2, in the experiment with T47D and in the experiment on UACC-257 was > 100 µM (inactive) in each case.
